From PMC9987750, “Potent carbonic anhydrase I, II, IX and XII inhibition activity of novel primary benzenesulfonamides incorporating bis-ureido moieties” (Journal of Enzyme Inhibition and Medicinal Chemistry, 2023)

Assays:
hCA I = molecular target: T1, hCA I (Homo sapiens, UniProt P00915); assay: stopped flow CO2 hydrase assay, CA inhibition; type: biochemical; settings: recombinant enzyme, pH 7.4, 10 min pre-incubation, from 3 different assays
T1 construct: made in house
Protocol: (§1) An SX.18 MV-R Applied Photophysics (Oxford, UK) stopped-flow instrument has been used to assay the catalytic/inhibition of various CA isozymes. […] Stock solutions of inhibitors were prepared at a concentration of 10 mM (in DMSO-water 1:1, v/v) and dilutions up to 0.01 nM done with the assay buffer mentioned above. […] Inhibitor and enzyme solutions were pre-incubated together for 10 min at room temperature prior to assay, in order to allow for the formation of the E-I complex. […] The inhibition constants were obtained by nonlinear least-squares methods using the Cheng-Prusoff equation, as reported earlier, and represent the mean from at least three different determinations.

hCA IX = molecular target: T2, hCA IX (Homo sapiens, UniProt Q16790); assay: stopped flow CO2 hydrase assay, CA inhibition; type: biochemical; settings: recombinant enzyme, pH 7.4, 10 min pre-incubation, from 3 different assays
T2 construct: made in house
Protocol: as §1

hCA II = molecular target: T3, hCA II (Homo sapiens, UniProt P00918); assay: stopped flow CO2 hydrase assay, CA inhibition; type: biochemical; settings: recombinant enzyme, pH 7.4, 10 min pre-incubation, from 3 different assays
T3 construct: made in house
Protocol: as §1

hCA XII = molecular target: T4, hCA XII (Homo sapiens, UniProt O43570); assay: stopped flow CO2 hydrase assay, CA inhibition; type: biochemical; settings: recombinant enzyme, pH 7.4, 10 min pre-incubation, from 3 different assays
T4 construct: made in house
Protocol: as §1

T4 sequence (O43570 25-354): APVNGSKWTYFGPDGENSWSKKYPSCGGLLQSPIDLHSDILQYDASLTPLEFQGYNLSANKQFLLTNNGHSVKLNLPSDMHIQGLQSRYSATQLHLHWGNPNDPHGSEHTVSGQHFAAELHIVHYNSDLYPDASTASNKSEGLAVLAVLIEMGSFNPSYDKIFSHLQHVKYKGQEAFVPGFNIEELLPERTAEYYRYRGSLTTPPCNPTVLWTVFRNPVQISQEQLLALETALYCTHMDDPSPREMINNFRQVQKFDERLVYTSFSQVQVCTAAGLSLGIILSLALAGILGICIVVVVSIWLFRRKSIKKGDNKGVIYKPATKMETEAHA
T1 sequence (P00915 whole entry): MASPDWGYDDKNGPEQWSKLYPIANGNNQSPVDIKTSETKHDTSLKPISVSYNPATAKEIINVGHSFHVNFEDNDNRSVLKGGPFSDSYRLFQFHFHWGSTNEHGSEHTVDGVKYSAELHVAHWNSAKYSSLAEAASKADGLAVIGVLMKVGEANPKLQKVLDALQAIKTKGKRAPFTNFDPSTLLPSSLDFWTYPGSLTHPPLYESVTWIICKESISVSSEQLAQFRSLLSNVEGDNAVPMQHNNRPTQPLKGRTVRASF

Ki (hCA I) | Ki (hCA IX) | Ki (hCA II) | Ki (hCA XII) | melting point | Structure (SMILES)
7280 nM | 57.5 nM | 680 nM | 37.3 nM | > 300 °C | NS(=O)(=O)c1ccc(NC(=O)Nc2ccc(NC(=O)Nc3ccc(S(N)(=O)=O)cc3)cc2)cc1 [Compound 8, 4,4'-(((1,4-Phenylenebis(azanediyl))bis(carbonyl))bis(azanediyl))dibenzenesulfonamide]
6280 nM | 835 nM | 484 nM | 429 nM | 293 to 294 °C | NS(=O)(=O)c1ccc(NC(=O)Nc2ccc(Cc3ccc(NC(=O)Nc4ccc(S(N)(=O)=O)cc4)cc3)cc2)cc1 [Compound 9, 4,4'-((((Methylenebis(4,1-phenylene))bis(azanediyl))bis(carbonyl))bis(azanediyl))dibenzenesulfonamide]
947 nM | 86.4 nM | 302 nM | 52.3 nM | > 300 °C | Cc1cc(-c2ccc(NC(=O)Nc3ccc(S(N)(=O)=O)cc3)c(C)c2)ccc1NC(=O)Nc1ccc(S(N)(=O)=O)cc1 [Compound 10, 4,4'-((((3,3'-Dimethyl-[1,1'-biphenyl]-4,4'-diyl)bis(azanediyl))bis(carbonyl))bis(azanediyl))dibenzenesulfonamide]
68.1 nM | 6.73 nM | 4.4 nM | 7.39 nM | 279 to 281 °C | Cc1ccc(NC(=O)Nc2ccc(S(N)(=O)=O)cc2)cc1NC(=O)Nc1ccc(S(N)(=O)=O)cc1 [Compound 11, 4,4'-((((4-Methyl-1,3-phenylene)bis(azanediyl))bis(carbonyl))bis(azanediyl))dibenzenesulfonamide]
6520 nM | 63.8 nM | 550 nM | 63.2 nM | > 300 °C | NS(=O)(=O)c1cccc(NC(=O)Nc2ccc(NC(=O)Nc3cccc(S(N)(=O)=O)c3)cc2)c1 [Compound 12, 3,3'-(((1,4-Phenylenebis(azanediyl))bis(carbonyl))bis(azanediyl))dibenzenesulfonamide]
9170 nM | 78.7 nM | 306 nM | 27.7 nM | 293 to 295 °C | NS(=O)(=O)c1cccc(NC(=O)Nc2ccc(Cc3ccc(NC(=O)Nc4cccc(S(N)(=O)=O)c4)cc3)cc2)c1 [Compound 13, 3,3'-((((Methylenebis(4,1-phenylene))bis(azanediyl))bis(carbonyl))bis(azanediyl))dibenzenesulfonamide]
688 nM | 578 nM | 637 nM | 67.9 nM | > 300 °C | Cc1cc(-c2ccc(NC(=O)Nc3cccc(S(N)(=O)=O)c3)c(C)c2)ccc1NC(=O)Nc1cccc(S(N)(=O)=O)c1 [Compound 14, 3,3'-((((3,3'-Dimethyl-[1,1'-biphenyl]-4,4'-diyl)bis(azanediyl))bis(carbonyl))bis(azanediyl))dibenzenesulfonamide]
5000 nM | 81.1 nM | 80.8 nM | 67.1 nM | 233 to 234 °C | Cc1ccc(NC(=O)Nc2cccc(S(N)(=O)=O)c2)cc1NC(=O)Nc1cccc(S(N)(=O)=O)c1 [Compound 15, 3,3'-((((4-Methyl-1,3-phenylene)bis(azanediyl))bis(carbonyl))bis(azanediyl))dibenzenesulfonamide]
2910 nM | 68.7 nM | 424 nM | 82.8 nM | > 300 °C | NS(=O)(=O)c1ccc(CCNC(=O)Nc2ccc(NC(=O)NCCc3ccc(S(N)(=O)=O)cc3)cc2)cc1 [Compound 16, 4,4'-((((1,4-Phenylenebis(azanediyl))bis(carbonyl))bis(azanediyl))bis(ethane-2,1-diyl))dibenzenesulfonamide]
5350 nM | 91.9 nM | 792 nM | 33.6 nM | 270 to 272 °C | NS(=O)(=O)c1ccc(CCNC(=O)Nc2ccc(Cc3ccc(NC(=O)NCCc4ccc(S(N)(=O)=O)cc4)cc3)cc2)cc1 [Compound 17, 4,4'-(((((Methylenebis(4,1-phenylene))bis(azanediyl))bis(carbonyl))bis(azanediyl))bis(ethane-2,1-diyl))dibenzenesulfonamide]
8310 nM | 93.7 nM | 604 nM | 60.3 nM | > 300 °C | Cc1cc(-c2ccc(NC(=O)NCCc3ccc(S(N)(=O)=O)cc3)c(C)c2)ccc1NC(=O)NCCc1ccc(S(N)(=O)=O)cc1 [Compound 18, 4,4'-(((((3,3'-Dimethyl-[1,1'-biphenyl]-4,4'-diyl)bis(azanediyl))bis(carbonyl))bis(azanediyl))bis(ethane-2,1-diyl))dibenzenesulfonamide]
95.4 nM | 8.92 nM | 25.8 nM | 5.02 nM | 245 to 247 °C | Cc1ccc(NC(=O)NCCc2ccc(S(N)(=O)=O)cc2)cc1NC(=O)NCCc1ccc(S(N)(=O)=O)cc1 [Compound 19, 4,4'-(((((4-Methyl-1,3-phenylene)bis(azanediyl))bis(carbonyl))bis(azanediyl))bis(ethane-2,1-diyl))dibenzenesulfonamide]
